In patent publication US9096605B2, “Pyrazolopyrimidine derivatives as PI3 kinase inhibitors” (GlaxoSmithKline LLC, priority 2011, dated 2015) one finds IC50 data, which are given here for 17 molecules.

Experiment [1] concerns pAKT(Ser473) in MDA-MB-468 cells. The experiment can be described thus: pAKT(Ser473) assay in MDA-MB-468 cells. The format is cell-based. Conditions: Homo sapiens, 0.5 h, compound treatment 30 minutes, MSD ELISA phospho AKT(Ser473), given as ranges, read-out: Cell Activity—pAKT IC50 in MDA-MB-468. Here is the method:
pAKT(Ser473) Assay in MDA-MB-468 Cells
MDA-MB-468 cells were plated in 384-well flat clear bottom tissue culture plates (Corning #3701) at a density of 5000 cells per 0.057 cm2 in 48 ul of RPMI 1640 media supplemented with 10% fetal bovine serum (FBS). Cells were seeded with a Wellmate liquid handler (Matrix). Columns 1 through 23 were plated with cells and column 24 contained media alone. Cells were incubated at 37° C. with 5% CO2 for approximately 16-20 hours. Duplicate compound plates were prepared in 384-well polypropylene V-Bottom plates (Greiner #781280).
Compound titrations were made across the columns (A1-A20). 20 ul of compound was added to the first column and diluted into a 20 point curve with dimethylsulfoxide (DMSO, Thermo #TS2064) using a 2-fold dilution factor with a liquid handling robot (Hamilton). Columns 22 through 24 contained DMSO alone. Titrations were diluted 682-fold for compound treatment with 4 ul of compound added to 105 ul of RPMI media. Two ul of the diluted compound was added to the cell plates containing 48 ul of media using a multimek robot (Beckman Coulter). Final DMSO concentrations were 0.15%. Cells were treated with compound for 30 minutes at 37° C. with 5% CO2.
Following incubation, media was aspirated from dosed cell plates using an ELx405 plate washer (Bio-Tek) and 25 ul of 4° C. Meso Scale Discovery (MSD) lysis buffer with the addition of protease and phosphatase inhibitors (supplied in MSD kit #N31CB-1) was added to each well using a multidrop combi (Thermo). Precoated 4-spot per well MSD ELISA plates coated with total and phospho AKT(Ser473) antibody and BSA (supplied in kit) were blocked for 1 hour at room temperature with 35 ul per well of 1× MSD wash buffer+3% BSA (supplied in kit).
Blocked plates were washed 4 times with 100 ul per well of 1× Tris wash buffer (supplied in MSD kit) using an Elx405 plate washer (Bio-Tek). To each well, 20 ul of cell lysate was added using a multimek robot (Beckman Coulter) and the plate incubated at 4° C. overnight (˜12-24 hours). Following incubation, the ELISA plates were washed 4 times (100 ul/well) with 1× Tris wash buffer. Twenty microliters per well of 1× detection antibody (supplied in MSD kit) was added using a multidrop combi (Thermo), followed by a 2 hour incubation at room temperature. Detection antibody was aspirated and the plates washed 4 times (100 ul/well) with 1× Tris wash buffer. Read Buffer (supplied in MSD kit) was added at 1× (35 ul/well) at room temperature using a multidrop (Thermo). Relative luminescence units (RLU) were determined using a SECTOR™ Imager 6000 with MSD Workbench Software.
Concentration Response Curves for pAKT(Ser473):
For analysis of the pAKT(Ser473) concentration response curves, the data was normalized using Phospho AKT values divided by the sum of corresponding Total AKT and Phospho AKT values. The normalized values are plotted as the percent of the DMSO-treated control values on the corresponding plate. To determine IC50 values, the data is fit to a 4 parameter nonlinear sigmoidal dose response (variable slope) using GraphPad Prism version 4 for Windows, (GraphPad Software, San Diego Calif. USA). Criteria for curve fitting and IC50 determination include that the IC50 values from duplicate runs must be within 2 to 3-fold of each other, the Y min must be less than or equal to 30% of the DMSO-treated control and the Y max must range between 80-120%. Any data point equal to or greater than 40% of the curve was not utilized.

Experiment [2] addresses T1, PI3K-beta (Homo sapiens, UniProt P42338).
T1 construct: made in house
In words: HTRF in vitro profiling assay for PI3K inhibition (beta isoform). Type of experiment: biochemical. Conditions: PI3K-beta enzyme pIC50 range, 200 pM enzyme, 100 uM ATP, 10 uM PIP2, 150 mM NaCl, corrected pIC50, read-out: PI3K-b Enz Activity. The source says: HTRF In Vitro Profiling Assays for PI3K Inhibition
The PI3-Kinase profiling assays were developed to measure the compound-dependent inhibition of the alpha, beta, delta, and gamma isoforms of PI3K in an in vitro catalytic assay. This assay was developed and optimized from a kit produced by Upstate (Millipore catalog #33-017). Briefly, this procedure utilizes a pre-formed HTRF (Homogeneous Time-Resolved Fluorescence energy transfer) complex between four binding partners: 1) biotinylated PIP3, 2) GST tagged pleckstrin homology (PH) domain, 3) Europium labeled anti-GST monoclonal antibody, and 4) Streptavidin-Allophycocyanin (APC). The native PIP3 produced by PI 3-Kinase activity displaces biotin-PIP3 from the PH domain, resulting in the dissociation of the HTRF complex and a decrease in the fluorescence signal. The format of this assay is the same for all 4 isoforms of PI3K; the differences lie in the concentration of enzyme used to achieve the most robust signal. The alpha and delta assays are run at 400 pM enzyme; the beta assay is at 200 pM enzyme and the gamma assay is run at 1 nM enzyme. In addition, the alpha, beta and delta assays are run with 150 mM NaCl while the gamma assay is run in the absence of NaCl. The ATP concentration is 100 uM in the alpha, beta, and delta assays and 15 uM ATP in the gamma assay. All reactions are run at 10 uM PIP2
Compounds are serially diluted (3-fold in 100% DMSO) across a 384-well polypropylene mother plate from column 1 to column 12 and column 13 to column 24, to yield 11 concentrations for each test compound. Columns 6 and 18 contain only DMSO. Once titrations are made, […] is transferred to a 384-well low-volume assay plate (Greiner 784076). This assay plate contains three pharmacological controls (known PI3K inhibitors) and 3 assay controls: (1) Enzyme without inhibitor; (2) Buffer minus enzyme, and (3) Buffer minus enzyme plus native PIP3. DMSO is stamped into all wells of columns 6 and 18. PIP3 is added at 40 μM in 1× Reaction buffer (1 μL of 200 μM PIP3) to alternating rows of column 18 (wells 18 B, D, F, H, J, L, N, P). The no-enzyme control reactions are run in wells 18 A, C, E, G, I, K, M, O (0.1 μL of 100% DMSO).
The PI3-Kinase profiling assay was optimized using the HTRF kit provided by Upstate (Millipore). The assay kit contains seven reagents: 1) 4× Reaction Buffer; 2) native PIP2 (substrate); 3) Stop A (EDTA); 4) Stop B (Biotin-PIP3); 5) Detection Mix A (Streptavidin-APC); 6) Detection Mix B (Eu-labeled Anti-GST plus GST-tagged PH-domain); 7) Detection Mix C (KF). In addition, the following items were obtained or purchased: PI3Kinase (prepared by GSK BR&AD), dithiothreitol (Sigma, D-5545), Adenosine-5′-triphosphate (ATP, Teknova cat. # A0220), native PIP3 (1,2-dioctanoyl-sn-glycero-3-[phosphoinositil-3,4,5-triphosphate]tetraammonium salt (Avanti polar lipids, 850186P), DMSO (Sigma, 472301).
PI3Kinase Reaction Buffer is prepared by diluting the stock 1:4 with de-ionized water. Freshly prepared DTT is added at a final concentration of 5 mM on the day of use. Enzyme addition and compound pre-incubation are initiated by the addition of 2.5 μL of PI3K (at twice its final concentration) in 1× reaction buffer to all wells using a Multidrop Combi. Plates are incubated at room temperature for 15 minutes. Reactions are initiated by addition of 2.5 μL of 2× substrate solution (PIP2 and ATP in 1× reaction buffer) using a Multidrop Combi. Plates are incubated at room temperature for one hour. Reactions are quenched by the addition of 2.5 μL of stop solution (Stop A and Stop B pre-mixed at a ratio of 5:1, respectively) to all wells using the Multidrop Combi. […]

T1 sequence (P42338 whole entry): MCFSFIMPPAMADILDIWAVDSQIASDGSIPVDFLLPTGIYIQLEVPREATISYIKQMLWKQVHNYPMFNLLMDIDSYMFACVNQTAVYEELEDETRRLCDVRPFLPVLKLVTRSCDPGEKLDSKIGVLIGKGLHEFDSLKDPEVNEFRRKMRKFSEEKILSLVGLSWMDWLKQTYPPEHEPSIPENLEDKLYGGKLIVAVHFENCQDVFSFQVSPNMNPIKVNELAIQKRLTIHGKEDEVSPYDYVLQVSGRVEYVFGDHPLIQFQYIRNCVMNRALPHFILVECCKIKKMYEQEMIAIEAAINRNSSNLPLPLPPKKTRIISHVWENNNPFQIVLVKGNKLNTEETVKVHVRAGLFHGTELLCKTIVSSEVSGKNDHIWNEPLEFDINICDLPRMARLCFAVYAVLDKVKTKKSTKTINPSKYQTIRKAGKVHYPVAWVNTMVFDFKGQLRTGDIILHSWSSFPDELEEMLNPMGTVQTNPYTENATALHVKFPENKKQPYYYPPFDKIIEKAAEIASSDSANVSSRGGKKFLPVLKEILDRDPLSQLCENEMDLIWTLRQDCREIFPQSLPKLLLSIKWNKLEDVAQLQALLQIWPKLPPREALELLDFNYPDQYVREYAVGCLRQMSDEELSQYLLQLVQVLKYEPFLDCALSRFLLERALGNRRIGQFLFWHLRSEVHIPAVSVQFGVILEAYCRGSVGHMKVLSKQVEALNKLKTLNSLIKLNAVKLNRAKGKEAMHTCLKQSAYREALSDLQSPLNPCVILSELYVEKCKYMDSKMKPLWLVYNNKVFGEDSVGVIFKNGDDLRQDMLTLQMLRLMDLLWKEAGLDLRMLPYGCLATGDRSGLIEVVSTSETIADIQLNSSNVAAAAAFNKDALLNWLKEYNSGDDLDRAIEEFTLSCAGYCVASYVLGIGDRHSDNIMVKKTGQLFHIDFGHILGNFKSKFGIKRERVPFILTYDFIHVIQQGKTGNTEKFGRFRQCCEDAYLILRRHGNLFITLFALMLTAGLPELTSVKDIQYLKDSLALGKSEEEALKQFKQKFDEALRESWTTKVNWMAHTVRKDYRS
T1 sequence (P27986 whole entry partner): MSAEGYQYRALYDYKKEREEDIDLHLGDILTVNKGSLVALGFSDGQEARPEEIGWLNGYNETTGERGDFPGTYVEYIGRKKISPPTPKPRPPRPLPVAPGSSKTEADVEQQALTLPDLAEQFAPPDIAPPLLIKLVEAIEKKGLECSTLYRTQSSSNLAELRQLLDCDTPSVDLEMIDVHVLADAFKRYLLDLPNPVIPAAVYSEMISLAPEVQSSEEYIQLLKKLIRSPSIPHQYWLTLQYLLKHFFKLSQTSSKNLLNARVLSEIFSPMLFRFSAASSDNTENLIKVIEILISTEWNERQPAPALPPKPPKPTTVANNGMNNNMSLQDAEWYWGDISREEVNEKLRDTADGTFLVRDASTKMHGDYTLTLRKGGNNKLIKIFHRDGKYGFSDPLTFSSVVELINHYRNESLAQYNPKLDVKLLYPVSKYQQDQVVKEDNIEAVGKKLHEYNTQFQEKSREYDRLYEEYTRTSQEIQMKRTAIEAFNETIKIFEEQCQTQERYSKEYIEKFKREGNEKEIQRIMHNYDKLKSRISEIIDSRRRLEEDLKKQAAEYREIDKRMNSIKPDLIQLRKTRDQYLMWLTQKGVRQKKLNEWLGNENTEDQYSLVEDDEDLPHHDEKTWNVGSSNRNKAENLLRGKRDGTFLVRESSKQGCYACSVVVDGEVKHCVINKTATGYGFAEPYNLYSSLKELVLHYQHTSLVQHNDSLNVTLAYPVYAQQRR

In the case of `Cc1nn2c(O)cc(N3CCOCC3)nc2c1Cc1cccc(C(F)(F)F)c1C` [Example 1, 2-methyl-3-(2-methyl-3-(trifluoromethyl)benzyl)-5-morpholinopyrazolo[1,5-a]pyrimidin-7-ol], the IC50 was 1000 to 5000 nM in experiment [1] and 0.126 to 1 nM in experiment [2].

Turning to `Cc1nn2c(O)cc(N3CCOC(C)C3)nc2c1Cc1cccc(C(F)(F)F)c1C` (stereo not shown) [Example 2, 2-methyl-3-(2-methyl-3-(trifluoromethyl)benzyl)-5-(2-methylmorpholino)pyrazolo[1,5-a]pyrimidin-7-ol], the figures for the IC50 in experiment [1] and in experiment [2] were 1000 to 5000 nM and 1.26 to 10 nM, respectively.

Regarding `Cc1nn2c(O)cc(N3CCOCC3=O)nc2c1Cc1cccc(C(F)(F)F)c1C` [Example 3, 4-(7-hydroxy-2-methyl-3-(2-methyl-3-(trifluoromethyl)benzyl)pyrazolo[1,5-a]pyrimidin-5-yl)morpholin-3-one], the results for the IC50 in experiment [1] and in experiment [2] were greater than 20000 nM and 126 to 1260 nM, respectively.

As for `Cc1nn2c(O)cc(C3CCOCC3)nc2c1Cc1cccc(C(F)(F)F)c1C` [Example 4, 2-methyl-3-(2-methyl-3-(trifluoromethyl)benzyl)-5-(tetrahydro-2H-pyran-4-yl)pyrazolo[1,5-a]pyrimidin-7-ol], the IC50 in experiment [1] was in the range of 6000 to 10000 nM; in experiment [2], 1.26 to 10 nM.

Take `Cc1nn2ccc(C3CCOCC3)nc2c1Cc1cccc(C(F)(F)F)c1C` [Example 5, 2-methyl-3-(2-methyl-3-(trifluoromethyl)benzyl)-5-(tetrahydro-2H-pyran-4-yl)pyrazolo[1,5-a]pyrimidine]: the IC50 in experiment [1] is greater than 20000 nM; in experiment [2] it was 126 to 1260 nM.

Regarding `Cc1nn2c(N)cc(-c3ccncc3)nc2c1Cc1cccc(C(F)(F)F)c1C` [Example 6, 2-methyl-3-(2-methyl-3-(trifluoromethyl)benzyl)-5-(pyridin-4-yl)pyrazolo[1,5-a]pyrimidin-7-amine], the IC50 in experiment [2] was 12.6 to 100 nM.

As for `Oc1cc(N2CCOCC2)nc2c(Cc3cccc(Cl)c3Cl)c(C(F)(F)F)nn12` [Example 7, 3-(2,3-dichlorobenzyl)-5-morpholino-2-(trifluoromethyl)pyrazolo[1,5-a]pyrimidin-7-ol], the IC50 is 1000 to 5000 nM in experiment [1] and 0.126 to 1 nM in experiment [2].

As to `CC1CN(c2cc(O)n3nc(C(F)(F)F)c(Cc4cccc(Cl)c4Cl)c3n2)CCO1` (stereo not shown) [Example 8, 3-(2,3-dichlorobenzyl)-5-(2-methylmorpholino)-2-(trifluoromethyl)pyrazolo[1,5-a]pyrimidin-7-ol], the IC50 lay within 6000 to 10000 nM in experiment [1] and 1.26 to 10 nM in experiment [2].

On to `Oc1cc(C2CCOCC2)nc2c(Cc3cccc(Cl)c3Cl)c(C(F)(F)F)nn12` [Example 9, 3-(2,3-dichlorobenzyl)-5-(tetrahydro-2H-pyran-4-yl)-2-(trifluoromethyl)pyrazolo[1,5-a]pyrimidin-7-ol], for which the IC50 in experiment [1] was greater than 20000 nM; in experiment [2], 1.26 to 10 nM.

Take `Cc1c(Cc2cnn3c(Cl)cc(N4CCOCC4)nc23)cccc1C(F)(F)F` [Example 10, 4-(7-chloro-3-(2-methyl-3-(trifluoromethyl)benzyl)pyrazolo[1,5-a]pyrimidin-5-yl)morpholine]: the IC50 in experiment [2] lay within 126 to 1260 nM.

Regarding `COc1cc(N2CCOCC2)nc2c(Cc3cccc(C(F)(F)F)c3C)cnn12` [Example 12, 4-(7-methoxy-3-(2-methyl-3-(trifluoromethyl)benzyl)pyrazolo[1,5-a]pyrimidin-5-yl)morpholine], in experiment [2], the IC50 was in the range of 126 to 1260 nM.

Consider `CC(=O)Nc1cc(N2CCOCC2)nc2c(Cc3cccc(C(F)(F)F)c3C)c(C)nn12` [Example 18, N-[2-methyl-3-{[2-methyl-3-(trifluoromethyl)phenyl]methyl}-5-(4-morpholinyl)pyrazolo[1,5-a]pyrimidin-7-yl]acetamide], for which the IC50 in experiment [2] lay within 126 to 1260 nM.

In the case of `Cc1nn2c(N3CCOCC3)cc(N3CCOCC3)nc2c1Cc1cccc2ccccc12` [Example 28, 4,4′-(2-methyl-3-(naphthalen-1-ylmethyl)pyrazolo[1,5-a]pyrimidine-5,7-diyl)dimorpholine], the IC50 in experiment [2] is 126 to 1260 nM.

Consider `COc1cc(-c2ccncc2)nc2c(Cc3cccc(Cl)c3Cl)c(C)nn12` [Example 34, 3-(2,3-dichlorobenzyl)-7-methoxy-2-methyl-5-(pyridin-4-yl)pyrazolo[1,5-a]pyrimidine], for which the IC50 in experiment [2] lay in the range of 126 to 1260 nM.

Take `Cc1nn2c(-n3ccnc3)cc(N3CCOCC3)nc2c1Cc1cccc2ccccc12` [Example 44, 4-(7-(1H-imidazol-1-yl)-2-methyl-3-(naphthalen-1-ylmethyl)pyrazolo[1,5-a]pyrimidin-5-yl)morpholine]: the IC50 in experiment [2] was in the range of 126 to 1260 nM.

In the case of `Cc1ccccc1Cc1c(C)nn2c(-c3cn[nH]c3)cc(-c3ccncc3)nc12` [Example 49, 2-methyl-3-(2-methylbenzyl)-7-(1H-pyrazol-4-yl)-5-(pyridin-4-yl)pyrazolo[1,5-a]pyrimidine], the IC50 in experiment [2] is 126 to 1260 nM.

Take `Cc1ccccc1Cc1c(C)n(C)n2c(=O)cc(-c3ccncc3)nc12` [Example 51, 1,2-dimethyl-3-(2-methylbenzyl)-5-(pyridin-4-yl)pyrazolo[1,5-a]pyrimidin-7(1H)-one]: the IC50 in experiment [2] lay in the range of 126 to 1260 nM.
